From US8304448B2, “Method for the treatment of metabolic disorder containing benzazole derivatives as an active ingredient” (Korea Research Institute of Bioscience and Biotechnology, priority 2006, dated 2012)

Key:
[1] = system: DGAT; experiment: Assay for inhibitory activity against DGAT ([14C]triacylglycerol formation, rat microsomal protein); type: biochemical; conditions: rat microsomal protein as enzyme source
Source text: The derivatives of Chemical Formula 1 in accordance with the present invention are found to inhibit the enzymatic activity of DGAT at a dose-dependent manner (refer to Table 2 and FIG. 1) as measured in a test in which [^14C]triacylglycerol was quantitatively analyzed after enzymatic reaction between 1,2-diacylglycerol and [^14C]palmitoyl-CoA, with microsomal proteins from rats serving as an enzyme source (refer to Example 1).
After enzymatic reaction between two substrates 1,2-diacylglycerol (Sigma, D0138) and [^14C]palmitoyl-CoA (Amersham, CFA583) with the microsomal protein of rat serving as an enzyme source in accordance with Coleman et al, Methods Enzymol., 98-103, 1992, the resulting product [^14C] triacylglycerol was measured for radioactivity. In detail, to a reaction buffer (175 mM Tris-HCl, pH 8.0, 20 μl bovine serum albumin (10 mg/ml), 100 mM MgCl2, 30 μM [^14C] palmitoyl-CoA (0.02 μCi, Amersham) and 200 μM 1,2-dioleoyl glycerol) was added 10 μl of a solution of the samples in dimethylsulfoxide (DMSO) and then 100˜200 μl of an isolated microsomal protein, followed by reaction at 25° C. for 10 min. The reaction was terminated with 1.5 ml of a mixture of 80:20:2 2-propanol:heptane:water (v:v:v). Thereafter, the [^14C] triacylglycerol thus formed was separated. In this regard, 1 ml of heptane and 0.5 ml of distilled water were added to the reaction mixture, which was then shaken. 1 ml of the supernatant thus formed was mixed with 2 ml of an alkaline ethanol solution (ethanol:0.5 N sodium hydroxide:water=50:10:40, v:v:v), followed by shaking. After being taken, 0.65 ml of the supernatant thus formed was measured for radioactivity using an LSC (liquid scintillation counter). The inhibitory activity against DGAT was calculated according to the following Mathematical Formula 1. The inhibitory effects of the benzazole derivatives on DGAT are summarized in Table 2, below while % DGAT inhibition is plotted against doses of compound 22 and 31 in FIG. 1.
T: Cpm of a test group in which a sample was added to an enzymatic buffer,
C: Cpm of a control in which no samples were added to an enzymatic buffer,
B: Cpm of a control in which a sample was added in the absence of any enzyme source.

[2] = system: ICR mice fed a high-fat diet; experiment: In vivo assay for anti-obesity activity in mice fed a high-fat diet; design: species or system mouse; conditions: high-fat diet
Experimental: Also, the derivatives of Chemical Formula 1 were tested for resistance to obesity by iterative oral administration at a dose of 10 mg/kg into ICR male mice (refer to Example 3). […] When they were administered, the levels of total triglycerides, total cholesterols, and low density lipoprotein (LDL)-cholesterol in the blood recovered to almost normal levels, with a significant increase observed in the level of high density lipoprotein (HDL)-cholesterol in the blood (refer to Tables 6 and 7 and FIGS. 3 and 4).
In order to verify the anti-obesity activity of the benzaldehyde derivatives of Chemical Formula 1 in accordance with the present invention, Compounds 22 and 31 were administered repetitively into rodents as follows.
The experimental animals were 6 week old ICR mice which were purchased from Japan SLC, Inc. via Central Lab. Animal Inc. Korea. They were acclimated to a new environment for one week before use, and fed with a foodstuff commercially available from Deyts, U.S.A. They were bred in an animal lab set at a temperature of 23±3° C. and RH 50±10% under light of 150˜300 Lux for a period of 12 hours (6 a.m.˜6 p.m.) with ventilation 10-20 times/hour. All of the 12 mice used were male, and were organized into two groups of 6. The test group was orally administered once a day at 4 p.m. with 10 mg/kg of the compound (Chemical Formula 1) in the form of a solution in biological saline for 35 days while the control was administered with biological saline only. Xenical, a commercially available lipase inhibitor, was administered orally at a dose of 10 mg/kg once a day as a positive control drug.
The animals were measured for body weight every week and sacrificed on Day 35, after which blood from the heart was sampled. Abdominal fat, epididymal fat, retroperitoneal fat and the liver were excised and weighed. Blood samples were assayed for total triglyceride, total cholesterol, HDL-cholesterol and LDL-cholesterol using respective test kits, all commercially available from Asan Pharmaceutical Co. Ltd., Korea.
For evidence of anti-obesity activity, compounds 22 and 31 were orally administered at regular intervals at a dose of 10 mg/kg into ICR male mice for a predetermined period of time with the concurrent provision of conditional diets thereto. Anatomized abdomens of the animals are given in the photographs of FIG. 2.

[3] = Day 35, 10 mg/kg oral, Mean ± SD
[4] = blood, Day 35, 10 mg/kg oral, Mean ± SD

SMILES | DGAT (% inhibition in 25 μM) [1] | other results
CC(C)(C)c1ccc(OCc2nc3ccc(C(=O)O)cc3o2)cc1 [compound 17, 2-(4-tert-butyl-phenoxymethyl)-benzoxazole-6-carboxylic acid] | −29.81% | –
O=C(O)c1ccc2nc(COc3ccc(C45CC6CC(CC(C6)C4)C5)cc3)oc2c1 [compound 13, 2-(4-adamantan-1-yl-phenoxymethyl)-benzoxazole-6-carboxylic acid] | −18.53% | –
O=C(O)c1ccc2[nH]c(COc3ccc(Cl)cc3Cl)nc2c1 [compound 16, 2-(2,4-dichloro-phenoxymethyl)-1H-benzoimidazole-5-carboxylic acid] | −7.37% | –
COC(=O)c1ccc2nc(COc3ccc(C(C)(C)C)cc3C(C)(C)C)oc2c1 [compound 7, 2-(2,4-tert-butyl-phenoxymethyl)-benzoxazole-6-carboxylic acid methyl ester] | 34.5% | –
COC(=O)c1ccc2oc(COc3ccc(Cl)cc3Cl)nc2c1 [Cpd. 1, 2-(2,4-dichloro-phenoxymethyl)-benzoxazole-5-carboxylic acid methyl ester] | −2.64% | –
O=C(O)c1ccc2oc(COc3ccc(C45CC6CC(CC(C6)C4)C5)cc3)nc2c1 [compound 12, 2-(4-adamantan-1-yl-phenoxymethyl)-benzoxazole-5-carboxylic acid] | −10.43% | –
NC(=O)c1ccc2nc(COc3ccc(C45CC6CC(CC(C6)C4)C5)cc3)[nH]c2c1 [compound 29, 2-(4-adamantan-1-yl-phenoxymethyl)-3H-benzoimidazole-5-carboxylic acid amide] | −13.38% | DGAT (% inhibition in 5 μM) [1]: −1.8%
O=C(O)c1ccc2[nH]c(COc3ccc([N+](=O)[O-])cc3)nc2c1 [compound 19, 2-(4-nitro-phenoxymethyl)-1H-benzoimidazole-5-carboxylic acid] | −5.86% | DGAT (% inhibition in 5 μM) [1]: 2.0%
O=C(O)c1ccc2[nH]c(COc3ccc(C45CC6CC(CC(C6)C4)C5)cc3)nc2c1 [compound 14, 2-(4-adamantan-1-yl-phenoxymethyl)-1H-benzoimidazole-5-carboxylic acid] | −13.17% | –
CC(C)(C)c1ccc(OCc2nc3cc(C(=O)O)ccc3[nH]2)cc1 [compound 18, 2-(4-tert-butyl-phenoxymethyl)-1H-benzoimidazole-5-carboxylic acid] | −13.05% | –
CCCCCCCCCCC[C@@H](C[C@@H]1OC(=O)[C@H]1CCCCCC)OC(=O)[C@H](CC(C)C)NC=O [Xenical, reference compound] | – | (Tissue Weight/Body Weight) × 100 Abdominal Fat + Epididymal Fat [2, 3]: 2.45 ± 1.03; (Tissue Weight/Body Weight) × 100 Liver [2, 3]: 4.31 ± 0.76; (Tissue Weight/Body Weight) × 100 Retroperitoneal Fat [2, 3]: 0.75 ± 0.50; (Tissue Weight/Body Weight) × 100 Total Fat [2, 3]: 3.20 ± 1.52; HDL-Cholesterol [2, 4]: 30.28 ± 1.52 mg/dL; LDL-Cholesterol [2, 4]: 20.45 ± 8.99 mg/dL; Total Cholesterol [2, 4]: 53.75 ± 12.35 mg/dL; Total Triglyceride [2, 4]: 40.77 ± 6.06 mg/dL; inhibition of body weight gain ([2]; 10 mg/kg oral once a day for 35 days): 88%; Body Weight (g) (Mean ± SD) Week 0 ([2]; 10 mg/kg oral once a day, Week 0): 26.30 ± 1.45 g; Body Weight (g) (Mean ± SD) Week 1 ([2]; 10 mg/kg oral once a day, Week 1): 33.63 ± 1.28 g; Body Weight (g) (Mean ± SD) Week 2 ([2]; 10 mg/kg oral once a day, Week 2): 37.41 ± 2.02 g; Body Weight (g) (Mean ± SD) Week 3 ([2]; 10 mg/kg oral once a day, Week 3): 39.11 ± 0.90 g; Body Weight (g) (Mean ± SD) Week 4 ([2]; 10 mg/kg oral once a day, Week 4): 39.95 ± 1.26 g; Body Weight (g) (Mean ± SD) Week 5 ([2]; 10 mg/kg oral once a day, Week 5): 41.24 ± 1.60 g
CN(C)CCNC(=O)c1ccc2[nH]c(COc3ccc(C45CC6CC(CC(C6)C4)C5)cc3)nc2c1 [compound 32, 2-(4-adamantan-1-yl-phenoxymethyl)-1H-benzoimidazole-5-carboxylic acid (2-dimethylamino-ethyl)-amide] | −3.08% | –
COC(=O)c1ccc2nc(COc3ccc(C45CC6CC(CC(C6)C4)C5)cc3)oc2c1 [Cpd. 3, 2-(4-adamantan-1-yl-phenoxymethyl)-benzoxazole-6-carboxylic acid methyl ester] | −5.34% | –
COC(=O)c1ccc2nc(COc3ccc(Cl)cc3Cl)oc2c1 [compound 5, 2-(2,4-dichloro-phenoxymethyl)-benzoxazole-6-carboxylic acid methyl ester] | 1.98% | –
CN(C)CCNC(=O)c1ccc2oc(COc3ccc(C45CC6CC(CC(C6)C4)C5)cc3)nc2c1 [compound 23, 2-(4-adamantan-1-yl-phenoxymethyl)-benzoxazole-5-carboxylic acid (2-dimethylamino-ethyl)-amide] | 8.59% | –
COC(=O)c1ccc2[nH]c(COc3ccc([N+](=O)[O-])cc3)nc2c1 [compound 9, 2-(4-nitro-phenoxymethyl)-1H-benzoimidazole-5-carboxylic acid methyl ester] | 0.61% | DGAT (% inhibition in 5 μM) [1]: −5.6%
O=C(NCc1ccco1)c1ccc2nc(COc3ccc(Cl)cc3Cl)[nH]c2c1 [compound 35, 2-(2,4-dichloro-phenoxymethyl)-3H-benzoimidazole-5-carboxylic acid (furan-2-ylmethyl)-amide] | 28.63% | –
NNC(=O)c1ccc2[nH]c(COc3ccc(Cl)cc3Cl)nc2c1 [compound 34, 2-(2,4-dichloro-phenoxymethyl)-1H-benzoimidazole-5-carboxylic acid hydrazide] | 6.74% | –
COC(=O)c1ccc2[nH]c(COc3ccc(Cl)cc3Cl)nc2c1 [compound 6, 2-(2,4-dichloro-phenoxymethyl)-1H-benzoimidazole-5-carboxylic acid methyl ester] | 0.63% | –
CN(C)C(=O)c1ccc2oc(COc3ccc(C45CC6CC(CC(C6)C4)C5)cc3)nc2c1 [compound 21, 2-(4-adamantan-1-yl-phenoxymethyl)-benzoxazole-5-carboxylic acid dimethylamide] | 10.49% | –
O=C(O)c1ccc2oc(COc3ccc(Cl)cc3Cl)nc2c1 [compound 11, 2-(2,4-dichloro-phenoxymethyl)-benzoxazole-5-carboxylic acid] | −16.48% | –
O=C(NCCCn1ccnc1)c1ccc2[nH]c(COc3ccc(C45CC6CC(CC(C6)C4)C5)cc3)nc2c1 [compound 33, 2-(4-adamantan-1-yl-phenoxymethyl)-1H-benzoimidazole-5-carboxylic acid (3-imidazol-1-yl-propyl)-amide] | 16.99% | –
O=C(NCc1ccco1)c1ccc2nc(COc3ccc(C45CC6CC(CC(C6)C4)C5)cc3)oc2c1 [compound 27] | 13.26% | –
O=C(O)c1ccc2nc(COc3ccc(Cl)cc3Cl)oc2c1 [compound 15, 2-(2,4-dichloro-phenoxymethyl)-benzoxazole-6-carboxylic acid] | −13.03% | –
O=C(NCc1ccco1)c1ccc2nc(COc3ccc(Cl)cc3Cl)oc2c1 [compound 28, 2-(2,4-dichloro-phenoxymethyl)-benzoxazole-6-carboxylic acid (furan-2-ylmethyl)-amide] | −8.07% | –
